Measurements taken from ChEMBL document CHEMBL1671658, “VanA-type vancomycin-resistant Staphylococcus aureus” (2009).
≈ marks a conversion by molar mass, not a printed value.

Legend:
Staphylococcus aureus [1] = assay: Antibacterial activity against VanA-type vancomycin-resistant Staphylococcus aureus isolate 2 harboring vanA operon
Staphylococcus aureus [2] = assay: Antibacterial activity against VanA-type vancomycin-resistant Staphylococcus aureus isolate 3 harboring vanA operon
Staphylococcus aureus [3] = assay: Antibacterial activity against high-level-resistant vancomycin-resistant Staphylococcus aureus harboring Tn1546 element
Staphylococcus aureus [4] = assay: Antibacterial activity against VanA-type vancomycin-resistant Staphylococcus aureus isolate 1 harboring vanA operon

## CN[C@H](CC(C)C)C(=O)N[C@H]1C(=O)N[C@@H](CC(N)=O)C(=O)N[C@H]2C(=O)N[C@H]3C(=O)N[C@H](C(=O)N[C@H](C(=O)O)c4cc(O)cc(O)c4-c4cc3ccc4O)[C@H](O)c3ccc(c(Cl)c3)Oc3cc2cc(c3O[C@@H]2O[C@H](CO)[C@@H](O)[C@H](O)[C@H]2O[C@H]2C[C@](C)(N)[C@H](O)[C@H](C)O2)Oc2ccc(cc2Cl)[C@H]1O [VANCOMYCIN]
Staphylococcus aureus [1]
  MIC: 32 µg/mL (≈ 22.1 µM)
Staphylococcus aureus [2]
  MIC: 64 µg/mL (≈ 44.2 µM)
Staphylococcus aureus [3]
  MIC: > 256 µg/mL
Staphylococcus aureus [4]
  MIC: > 256 µg/mL
